In patent publication US9657351B2, “MRNA-based gene expression for personalizing patient cancer therapy with an MDM2 antagonist” (Hoffmann-La Roche Inc., priority 2013, dated 2017):
pIC50: −log10 of the molar value.

Experiments:
Test in all cases: COMPOUND A In Vitro Assay
Type in all cases: cell-based
143B = conditions: Homo sapiens, Bone, TP53 Mutant
Summary of the method: (§1)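 IC50 is the reported therapy response, obtained by high-throughput screening of human cancer cell lines exposed to RG7112. Values at or below 1 classify a line as sensitive. Values of 10 or more mark it resistant.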

C-33 A = conditions: Homo sapiens, Cervix, TP53 Mutant
Summary of the method: as §1

CAMA-1 = conditions: Homo sapiens, Breast, mammary gland, TP53 Mutant
Summary of the method: as §1

COLO 205 = conditions: Homo sapiens, Intestine, large, colon, TP53 Mutant
Summary of the method: as §1

DU-4475 = conditions: Homo sapiens, Breast, mammary gland, TP53 Wild type
Summary of the method: as §1

HCT-15 = conditions: Homo sapiens, Intestine, large, colon, TP53 Mutant
Summary of the method: as §1

HepG2 = conditions: Homo sapiens
Summary of the method: as §1

JIMT-1 = conditions: Homo sapiens, Breast, TP53 Mutant
Summary of the method: as §1

KATO-III = conditions: Homo sapiens, Stomach, TP53 Mutant
Summary of the method: as §1

KG-1a = conditions: Homo sapiens, Bone marrow, TP53 Mutant
Summary of the method: as §1

KMM-1 = conditions: Homo sapiens, Lymphocyte, TP53 Mutant
Summary of the method: as §1

MCF10DCIS•com = conditions: Homo sapiens, Breast, TP53 Wild type
Summary of the method: as §1

MDA-MB-231 = conditions: Homo sapiens, Breast, mammary gland, TP53 Mutant
Summary of the method: as §1

MDA-MB-435S = conditions: Homo sapiens, Skin, TP53 Mutant
Summary of the method: as §1

MDA-MB-468 = conditions: Homo sapiens, Breast, mammary gland, TP53 Mutant
Summary of the method: as §1

ME-180 = conditions: Homo sapiens, Cervix, TP53 Wild type
Summary of the method: as §1

NCI-H1299 = conditions: Homo sapiens, Lung, TP53 Mutant
Summary of the method: as §1

NCI-H187 = conditions: Homo sapiens, Lung, TP53 Mutant
Summary of the method: as §1

NCI-H2023 = conditions: Homo sapiens, Lung, TP53 Mutant
Summary of the method: as §1

NCI-H345 = conditions: Homo sapiens, Lung, TP53 Mutant
Summary of the method: as §1

NCI-H358 = conditions: Homo sapiens, Lung, bronchi, TP53 Mutant
Summary of the method: as §1

NCI-H460 = conditions: Homo sapiens
Summary of the method: as §1

NCI-H508 = conditions: Homo sapiens, Intestine, large, caecum, TP53 Mutant
Summary of the method: as §1

NCI-H82 = conditions: Homo sapiens, Lung, TP53 Wild type
Summary of the method: as §1

NKM-1 = conditions: Homo sapiens
Summary of the method: as §1

QG-56 = conditions: Homo sapiens, Lung, TP53 Mutant
Summary of the method: as §1

Ramos = conditions: Homo sapiens, Lymphocyte B, TP53 Wild type
Summary of the method: as §1

SBC-5 = conditions: Homo sapiens, Lung, TP53 Mutant
Summary of the method: as §1

SCC-15 = conditions: Homo sapiens, Tongue, TP53 Mutant
Summary of the method: as §1

SCaBER = conditions: Homo sapiens, Urinary, bladder, TP53 Mutant
Summary of the method: as §1

SK-BR-3 = conditions: Homo sapiens, Pleura, TP53 Mutant
Summary of the method: as §1

SK-MEL-1 = conditions: Homo sapiens
Summary of the method: as §1

SK-N-F1 = conditions: Homo sapiens, Brain, TP53 Mutant
Summary of the method: as §1

SR = conditions: Homo sapiens, Lymphocyte, TP53 Wild type
Summary of the method: as §1

SW948 = conditions: Homo sapiens, Intestine, large, colon, TP53 Mutant
Summary of the method: as §1

T98G = conditions: Homo sapiens, Brain, TP53 Mutant
Summary of the method: as §1

`CCOc1cc(C(C)(C)C)ccc1C1=N[C@@](C)(c2ccc(Cl)cc2)[C@@](C)(c2ccc(Cl)cc2)N1C(=O)N1CCN(CCCS(C)(=O)=O)CC1` [COMPOUND A] gave a pIC50 (143B) of 4.82, a pIC50 (C-33 A) of 4.74 and a pIC50 (CAMA-1) of 4.66. The pIC50 (COLO 205) was 5.04, the pIC50 (DU-4475) was 5.68 and the pIC50 (HCT-15) was 5.12. It also gave a pIC50 (HepG2; HepG2, HepG2, Liver, TP53 Wild type) of 6.74, a pIC50 (HepG2; HepG2, HepG2 cells) of 6.70 and a pIC50 (JIMT-1) of 4.96. The pIC50 (KATO-III) was 5.01, the pIC50 (KG-1a) was 5.05 and the pIC50 (KMM-1) was 4.72. The pIC50 (MCF10DCIS•com) was 5.85, the pIC50 (MDA-MB-231) was 4.77 and the pIC50 (MDA-MB-435S) was 4.92. It also gave a pIC50 (MDA-MB-468) of 5.00, a pIC50 (ME-180) of 5.03 and a pIC50 (NCI-H1299) of 4.82. For the same molecule, the pIC50 (NCI-H187) was 4.82, the pIC50 (NCI-H2023) was 5.24 and the pIC50 (NCI-H345) was 4.77. The pIC50 (NCI-H358) was 5.09, the pIC50 (NCI-H460; NCI-H460, NCI-H460, Lung, TP53 Wild type) was 6.06 and the pIC50 (NCI-H460; NCI-H460, NCI-H460 cells) was 6.05. It also gave a pIC50 (NCI-H508) of 5.92, a pIC50 (NCI-H82) of 5.31 and a pIC50 (NKM-1; NKM-1, Lymphocyte, TP53 Wild type) of 6.49. It also gave a pIC50 (NKM-1; NKM-1 cells) of 6.52, a pIC50 (QG-56) of 5.00 and a pIC50 (Ramos) of 5.06. The pIC50 (SBC-5) was 4.74, the pIC50 (SCC-15) was 4.70 and the pIC50 (SCaBER) was 5.07. The pIC50 (SK-BR-3) was 4.68, the pIC50 (SK-MEL-1; SK-MEL-1, SK-MEL-1, Skin, TP53 Wild type) was 6.12 and the pIC50 (SK-MEL-1; SK-MEL-1, SK-MEL-1 cells) was 6.10. For the same molecule, the pIC50 (SK-N-F1) was 4.77, the pIC50 (SR) was 7.37 and the pIC50 (SW948) was 4.72. It also gave a pIC50 (T98G) of 5.08.
